Data reported in paper PMC12736958 (Pharmaceutics, 2025).
Where “and” joins values, the source holds several entries; their conditions need not be identical. Equal entries are not always repeated.

Legend:
[1] = in vivo pharmacokinetic study in rats; design: species or system Sprague-Dawley (SD) rats; conditions: rat; for plasma concentration of Cur, individual animals: Rat1-Rat5
Protocol: Male Sprague-Dawley (SD) rats (200 ± 20 g) were supplied by SPF Biotechnology Co., Ltd. (Beijing, China) and housed under standard laboratory conditions throughout the study. All animals were housed in a controlled environment (22 ± 2 °C, 55 ± 10% humidity) under a 12/12 h light/dark cycle, with free access to a standard laboratory rodent diet and water. A 12 h fasting period was implemented prior to the experiment, with water permitted ad libitum. All animal procedures were performed in strict accordance with protocols approved by the Biological and Medical Ethics Committee of Minzu University of China.
After fasting for 12 h (with free access to water), SD rats (n = 25) were randomly divided into five groups (n = 5 per group). Group 1: crystalline Cur (i.v., dissolved in saline with 5% DMSO). Group 2: crystalline Cur (p.o., suspended in 0.5% CMC-Na). Group 3: Cur/P188 ASD (1:8, w/w; p.o.). Group 4: Cur/P188/TW80 ASD (1:8:1, w/w/w; p.o.). Group 5: Cur/P188/SLS ASD (1:8:1, w/w/w; p.o.). Group 1 received the formulation via tail vein injection, while Groups 2–5 were suspended in water (pH 7.0) and administered orally by gavage at a Cur-equivalent dose of 40 mg/kg. Blood samples (0.2 mL) were collected from each rat at 4, 7, 10, 20, and 30 min, and 1, 2, 4, and 24 h post-dosing. Plasma was separated by centrifugation (5000 rpm, 5 min, 4 °C) and stored at −80 °C until analysis.
Cur was extracted from 50 μL of plasma using 600 μL of ethyl acetate and quantified by LC-MS/MS, with diclofenac sodium (20 μL, 200 ng/mL) serving as the internal standard. Blank plasma was obtained from a separate control group (n = 5) that received water only. Analysis of these blank samples confirmed the absence of significant matrix interference, thereby validating the analytical method.
(§1) Cur quantification in cellular and rat plasma samples was carried out using a SCIEX QTRAP® 5500 LC-MS/MS system coupled with a SCIEX ExionLC^TM AC system (AB SCIEX, Framingham, MA, USA).
Separation was achieved on an Acquity UPLC® BEH C18 column (100 × 2.1 mm, 1.7 μm; Waters) maintained at 40 °C. The mobile phase consisted of (A) 0.1% formic acid in water and (B) acetonitrile (ACN), delivered at a flow rate of 0.14 mL/min with the following gradient program: 10% B (0–1.0 min), increased to 95% B (1.0–9.0 min), and returned to 10% B (9.0–12.0 min). The injection volume was 5 μL. The retention times were approximately 4.85 min for Cur and 6.70 min for diclofenac sodium, used as the internal standard (IS).
Mass spectrometric detection was performed using an IonDrive^TM Turbo V ion (SCIEX, Framingham, MA, USA) source operating in negative electrospray ionization (ESI) mode. Quantification was conducted via multiple reaction monitoring (MRM) at m/z 367.1→133.9 for Cur, and m/z 294.1→250.0 for diclofenac sodium (IS). The assay was linear over the concentration range of 2-500 ng/mL (R^2 > 0.999). All data were acquired in triplicate (n = 3) and processed using MultiQuant software version 3.0.2 (AB SCIEX).
Pharmacokinetic parameters were calculated using non-compartmental analysis with DAS 2.0 software (Boying Corporation, Beijing, China). Data analysis was performed using GraphPad Prism 10.1.2 software. The result is expressed as mean ± standard deviation (SD). For pairwise comparisons between groups, t-tests were conducted. For multiple group comparisons, one-way analysis of variance (ANOVA) was performed, followed by Tukey’s post hoc test for multiple comparisons. Prior to ANOVA, the assumptions of normality and homogeneity of variances were verified using the Shapiro–Wilk test and Bartlett’s test, respectively. p < 0.05 indicates statistically significant differences.

MDCK cells [2] = experiment: cellular uptake study (LC-MS/MS of intracellular Cur); type: cell-based, canine; conditions: 10 min incubation, 5 μg Cur-equivalent (10 μg/mL)
Protocol: MDCK cells were seeded in 24-well plates and cultured following the procedures described in Cytotoxicity Assay section. The cells were treated with 500 µL of complete DMEM medium (pH 7.4) containing crystalline Cur, amorphous Cur, binary Cur/P188 ASD (1:8, w/w), or ternary Cur/P188/TW80 or Cur/P188/SLS ASDs (1:8:1, w/w/w), at Cur-equivalent dose of 5 µg per well. After 10 min of incubation, the treatment was terminated by immediate removal of the medium. The cells were then washed three times with ice-cold PBS, lysed with 200 µL of 0.1% SDS (assisted by sonication), and dissolved in methanol at a 1:2 (v/v) ratio. The total intracellular Cur content was quantified using LC-MS/MS. All experiments were performed in quadruplicate (n = 4).
as §1
Separation was achieved on an Acquity UPLC® BEH C18 column (100 × 2.1 mm, 1.7 μm; Waters) maintained at 40 °C. […]
Mass spectrometric detection was performed using an IonDrive^TM Turbo V ion (SCIEX, Framingham, MA, USA) source operating in negative electrospray ionization (ESI) mode. Quantification was conducted via multiple reaction monitoring (MRM) at m/z 367.1→133.9 for Cur, and m/z 294.1→250.0 for diclofenac sodium (IS). […]

MDCK cells [3] = experiment: cytotoxicity assay (CCK-8 cell viability); type: cell-based, canine; conditions: 4 h treatment
Protocol: Madin-Darby Canine Kidney (MDCK) cells were seeded in 96-well plates (1 × 10^5 cells/well) and cultured for 24 h at 37 °C in complete DMEM (10% FBS, 1% penicillin–streptomycin) under 5% CO2. Cells were treated for 4 h with 100 µL of complete DMEM media (pH 7.4) containing crystalline Cur, amorphous Cur, binary Cur/P188 ASD (1:8, w/w), or ternary Cur/P188/TW80 or Cur/P188/SLS ASDs (1:8:1, w/w/w), at Cur-equivalent concentrations of 0 (vehicle), 2, 10, 25, 50, 100, and 200 μg/mL. After treatment, cells were washed three times with PBS (pH 7.4). Cell viability was assessed using a CCK-8 assay: 100 µL of serum-free DMEM and 10 µL of CCK-8 reagent were added to each well, followed by incubation for 2 h. Absorbance was measured at 450 nm using a Multiskan GO microplate reader (Thermo Fisher Scientific, Vantaa, Finland).
Cell viability was calculated according to the following equation:Viability (%) = [(As − Aᵦ)/(Ac − Aᵦ)] × 100% where
• As is the absorbance of experimental wells (cells + treatment + CCK-8); • Ac is the absorbance of control wells (cells + medium + CCK-8, no drug); • Aᵦ is the absorbance of blank wells (medium + CCK-8, no cells, no drug).
All experiments were performed in quintuplicate (n = 5).

[4] = male, Sprague-Dawley, plasma, oral (o.p.), 40 mg/kg Cur-equivalent

Cmax [1, 4]: 2.4 ± 0.4 ng/mL
Tmax [1, 4]: 0.2 h
half-life [1, 4]: 1.8 ± 0.4 h
MRT last ([1]; male, Sprague-Dawley, plasma, oral (o.p.), 40 mg/kg Cur-equivalent, read-out: MRT(0–24)): 6.3 ± 2 h
bioavailability ([1]; male, Sprague-Dawley, plasma, oral, 40 mg/kg, oral 40 mg/kg relative to intravenous administration, read-out: F (absolute oral bioavailability)): ~1%
concentration at 0.12 h ([1]; male, Sprague-Dawley, plasma, po, 40 mg/kg, oral (o.p.), 40 mg/kg, 0.12 h, Rat1-Rat5, read-out: plasma concentration of Cur, individual animals): 2.6 ng/mL
concentration at 0.17 h ([1]; male, Sprague-Dawley, plasma, po, 40 mg/kg, oral (o.p.), 40 mg/kg, 0.17 h, Rat1-Rat5, read-out: plasma concentration of Cur, individual animals): 2.8 ng/mL
F (absolute oral bioavailability) ([1]; oral 40 mg/kg relative to intravenous administration, 40 mg/kg): 0.97%
cellular uptake (% of the administered dose) (MDCK cells [2]): 0.2%
Structure (SMILES): COc1cc(/C=C/C(=O)CC(=O)/C=C/c2ccc(O)c(OC)c2)ccc1O [Crystalline Cur, Curcumin]
plasma concentration of Cur, individual animals ([1]; oral (o.p.), 40 mg/kg, 0.07 h): 1.7 ng/mL and 1.4 ng/mL (2×) and 0.7 ng/mL and 1.1 ng/mL
plasma concentration of Cur, individual animals ([1]; oral (o.p.), 40 mg/kg, 0.12 h): 2.6 ng/mL and 2.1 ng/mL and 1.6 ng/mL and 1.9 ng/mL
plasma concentration of Cur, individual animals ([1]; oral (o.p.), 40 mg/kg, 0.17 h): 2.8 ng/mL and 2.5 ng/mL and 2.1 ng/mL and 2.0 ng/mL
plasma concentration of Cur, individual animals ([1]; oral (o.p.), 40 mg/kg, 0.33 h): 2.5 ng/mL and 2.1 ng/mL and 2.0 ng/mL and 1.5 ng/mL and 1.0 ng/mL
plasma concentration of Cur, individual animals ([1]; oral (o.p.), 40 mg/kg, 0.5 h): 2.2 ng/mL and 1.4 ng/mL and 1.2 ng/mL (2×) and 0.542 ng/mL
plasma concentration of Cur, individual animals ([1]; oral (o.p.), 40 mg/kg, 1 h): 1.4 ng/mL and 0.7 ng/mL and 0.845 ng/mL and 0.9 ng/mL and 0.369 ng/mL
plasma concentration of Cur, individual animals ([1]; oral (o.p.), 40 mg/kg, 2 h): 0.64 ng/mL and 0.9 ng/mL and 0.5 ng/mL and 0.7 ng/mL and 0.2 ng/mL
plasma concentration of Cur, individual animals ([1]; oral (o.p.), 40 mg/kg, 4 h): 0.256 ng/mL and 0.433 ng/mL and 0.228 ng/mL and 0.35 ng/mL and 0.125 ng/mL
plasma concentration of Cur, individual animals ([1]; oral (o.p.), 40 mg/kg, 24 h): 0.08 ng/mL and 0.056 ng/mL and 0.2 ng/mL and 0.112 ng/mL and 0.1 ng/mL
concentrations with negligible toxicity (MDCK cells [3]): ≤ 25000 ng/mL
